Calls of active or inactive are those of the source.
Tests used:
CAAX prenyl protease 2 [1] = target: T1, CAAX prenyl protease 2 (Homo sapiens, UniProt Q9Y256); assay: human Rce1 protease inhibitors, dose response, biochemical, yeast membranes, quenched-peptide fluorescence, cherry-pick (AID 588849)
T1 sequence (Q9Y256 whole entry): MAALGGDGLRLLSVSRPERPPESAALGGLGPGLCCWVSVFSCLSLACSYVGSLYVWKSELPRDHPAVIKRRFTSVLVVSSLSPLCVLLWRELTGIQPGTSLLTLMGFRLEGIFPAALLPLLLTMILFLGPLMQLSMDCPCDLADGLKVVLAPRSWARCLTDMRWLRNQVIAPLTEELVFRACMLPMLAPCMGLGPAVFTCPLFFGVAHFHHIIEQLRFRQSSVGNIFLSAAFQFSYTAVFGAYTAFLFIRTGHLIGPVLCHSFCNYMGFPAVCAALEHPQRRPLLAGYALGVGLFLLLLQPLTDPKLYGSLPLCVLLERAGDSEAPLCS

[2] = mammalian cell cytotoxicity, dose response, cytotoxicity control, plate reader, cherry-pick samples (AID 504397); format: functional, cell-based
CAAX prenyl protease 2 [3] = target: T2, CAAX prenyl protease 2 (Saccharomyces cerevisiae S288c, UniProt Q03530); format: biochemical
T2 sequence (Q03530 whole entry): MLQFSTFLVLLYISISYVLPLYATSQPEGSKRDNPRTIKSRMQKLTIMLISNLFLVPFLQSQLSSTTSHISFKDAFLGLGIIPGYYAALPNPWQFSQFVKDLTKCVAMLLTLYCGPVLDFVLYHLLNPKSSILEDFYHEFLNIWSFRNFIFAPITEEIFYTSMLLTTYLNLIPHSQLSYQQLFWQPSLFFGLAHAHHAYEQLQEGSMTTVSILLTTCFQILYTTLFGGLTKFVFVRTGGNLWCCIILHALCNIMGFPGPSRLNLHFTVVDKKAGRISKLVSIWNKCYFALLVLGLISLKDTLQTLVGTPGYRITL

[4] = target: T3, Ubiquitin-conjugating enzyme E2 N (Homo sapiens, UniProt P61088); format: functional
T3 sequence (P61088 whole entry): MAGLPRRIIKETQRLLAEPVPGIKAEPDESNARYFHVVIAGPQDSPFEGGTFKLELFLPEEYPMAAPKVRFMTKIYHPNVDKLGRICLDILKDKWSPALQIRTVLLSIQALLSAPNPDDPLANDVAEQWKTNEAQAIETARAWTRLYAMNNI

Bcl-2-related protein A1 = target: T4, Bcl-2-related protein A1 (Mus musculus, UniProt Q07440); format: functional;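 note: confirmatory dose–response counterscreen on Bfl-1, used to check hits from a UBC13 polyubiquitin inhibitor campaign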
T4 sequence (Q07440 whole entry): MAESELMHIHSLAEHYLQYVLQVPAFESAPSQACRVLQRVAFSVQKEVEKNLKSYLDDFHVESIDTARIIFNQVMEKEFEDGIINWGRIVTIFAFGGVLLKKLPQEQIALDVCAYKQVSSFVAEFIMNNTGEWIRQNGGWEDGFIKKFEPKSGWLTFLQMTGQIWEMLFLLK

[5] = target: T3, Ubiquitin-conjugating enzyme E2 N; format: functional; remark: listed apart in the source
[6] = target: Intestinal-type alkaline phosphatase (Homo sapiens, UniProt P09923); assay: activation of human intestinal alkaline phosphatase – biochemical, dose response (AID 488873); format: functional
Intestinal-type alkaline phosphatase (Homo sapiens, UniProt P09923), sequence (P09923 whole entry): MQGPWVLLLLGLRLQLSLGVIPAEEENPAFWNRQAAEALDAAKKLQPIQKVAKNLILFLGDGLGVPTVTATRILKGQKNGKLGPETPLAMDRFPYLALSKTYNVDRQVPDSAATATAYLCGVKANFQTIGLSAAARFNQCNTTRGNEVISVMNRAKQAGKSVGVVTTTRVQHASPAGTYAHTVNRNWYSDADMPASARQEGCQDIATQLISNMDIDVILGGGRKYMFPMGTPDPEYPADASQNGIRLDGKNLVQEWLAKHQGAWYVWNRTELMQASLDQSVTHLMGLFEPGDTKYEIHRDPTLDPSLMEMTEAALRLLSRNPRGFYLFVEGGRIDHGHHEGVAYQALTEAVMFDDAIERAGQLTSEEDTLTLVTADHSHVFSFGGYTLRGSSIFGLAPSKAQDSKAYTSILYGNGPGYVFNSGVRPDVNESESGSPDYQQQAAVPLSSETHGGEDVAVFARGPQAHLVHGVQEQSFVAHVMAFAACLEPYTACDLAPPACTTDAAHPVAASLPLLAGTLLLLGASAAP

[7] = target: Intestinal-type alkaline phosphatase (Mus musculus, UniProt P24822); assay: mouse intestinal alkaline phosphatase activators, dose response, biochemical, luminescence, uHTS hits (AID 488783); format: functional
[8] = target: T5, Alkaline phosphatase, tissue-nonspecific isozyme (Homo sapiens, UniProt P05186); assay: TNAP enzyme activators, dose response, selectivity assay for mouse IAP activator project, biochemical, TNAP isozyme, mouse IAP uHTS hits (AID 488880); format: functional
T5 sequence (P05186 whole entry): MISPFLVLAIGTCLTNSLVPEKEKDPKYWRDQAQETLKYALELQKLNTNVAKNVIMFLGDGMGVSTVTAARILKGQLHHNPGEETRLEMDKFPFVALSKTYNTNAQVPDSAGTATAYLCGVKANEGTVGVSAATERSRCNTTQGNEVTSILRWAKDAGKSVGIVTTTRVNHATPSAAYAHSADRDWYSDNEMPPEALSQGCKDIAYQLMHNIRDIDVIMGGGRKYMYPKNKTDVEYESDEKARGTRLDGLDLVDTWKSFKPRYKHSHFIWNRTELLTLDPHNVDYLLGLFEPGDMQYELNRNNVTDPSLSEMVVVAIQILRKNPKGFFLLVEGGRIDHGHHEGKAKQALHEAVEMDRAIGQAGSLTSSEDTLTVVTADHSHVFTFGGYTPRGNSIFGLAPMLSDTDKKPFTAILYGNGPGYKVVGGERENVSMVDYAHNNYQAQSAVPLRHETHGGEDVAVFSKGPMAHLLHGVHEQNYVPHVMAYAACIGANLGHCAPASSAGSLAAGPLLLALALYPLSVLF

[9] = target: T6, Voltage-gated N-type calcium channel alpha-1B subunit/Amyloid beta A4 precursor protein-binding family A member 1 (Homo sapiens, UniProt Q00975+Q02410); format: protein assay
T6 sequence (Q00975 whole entry): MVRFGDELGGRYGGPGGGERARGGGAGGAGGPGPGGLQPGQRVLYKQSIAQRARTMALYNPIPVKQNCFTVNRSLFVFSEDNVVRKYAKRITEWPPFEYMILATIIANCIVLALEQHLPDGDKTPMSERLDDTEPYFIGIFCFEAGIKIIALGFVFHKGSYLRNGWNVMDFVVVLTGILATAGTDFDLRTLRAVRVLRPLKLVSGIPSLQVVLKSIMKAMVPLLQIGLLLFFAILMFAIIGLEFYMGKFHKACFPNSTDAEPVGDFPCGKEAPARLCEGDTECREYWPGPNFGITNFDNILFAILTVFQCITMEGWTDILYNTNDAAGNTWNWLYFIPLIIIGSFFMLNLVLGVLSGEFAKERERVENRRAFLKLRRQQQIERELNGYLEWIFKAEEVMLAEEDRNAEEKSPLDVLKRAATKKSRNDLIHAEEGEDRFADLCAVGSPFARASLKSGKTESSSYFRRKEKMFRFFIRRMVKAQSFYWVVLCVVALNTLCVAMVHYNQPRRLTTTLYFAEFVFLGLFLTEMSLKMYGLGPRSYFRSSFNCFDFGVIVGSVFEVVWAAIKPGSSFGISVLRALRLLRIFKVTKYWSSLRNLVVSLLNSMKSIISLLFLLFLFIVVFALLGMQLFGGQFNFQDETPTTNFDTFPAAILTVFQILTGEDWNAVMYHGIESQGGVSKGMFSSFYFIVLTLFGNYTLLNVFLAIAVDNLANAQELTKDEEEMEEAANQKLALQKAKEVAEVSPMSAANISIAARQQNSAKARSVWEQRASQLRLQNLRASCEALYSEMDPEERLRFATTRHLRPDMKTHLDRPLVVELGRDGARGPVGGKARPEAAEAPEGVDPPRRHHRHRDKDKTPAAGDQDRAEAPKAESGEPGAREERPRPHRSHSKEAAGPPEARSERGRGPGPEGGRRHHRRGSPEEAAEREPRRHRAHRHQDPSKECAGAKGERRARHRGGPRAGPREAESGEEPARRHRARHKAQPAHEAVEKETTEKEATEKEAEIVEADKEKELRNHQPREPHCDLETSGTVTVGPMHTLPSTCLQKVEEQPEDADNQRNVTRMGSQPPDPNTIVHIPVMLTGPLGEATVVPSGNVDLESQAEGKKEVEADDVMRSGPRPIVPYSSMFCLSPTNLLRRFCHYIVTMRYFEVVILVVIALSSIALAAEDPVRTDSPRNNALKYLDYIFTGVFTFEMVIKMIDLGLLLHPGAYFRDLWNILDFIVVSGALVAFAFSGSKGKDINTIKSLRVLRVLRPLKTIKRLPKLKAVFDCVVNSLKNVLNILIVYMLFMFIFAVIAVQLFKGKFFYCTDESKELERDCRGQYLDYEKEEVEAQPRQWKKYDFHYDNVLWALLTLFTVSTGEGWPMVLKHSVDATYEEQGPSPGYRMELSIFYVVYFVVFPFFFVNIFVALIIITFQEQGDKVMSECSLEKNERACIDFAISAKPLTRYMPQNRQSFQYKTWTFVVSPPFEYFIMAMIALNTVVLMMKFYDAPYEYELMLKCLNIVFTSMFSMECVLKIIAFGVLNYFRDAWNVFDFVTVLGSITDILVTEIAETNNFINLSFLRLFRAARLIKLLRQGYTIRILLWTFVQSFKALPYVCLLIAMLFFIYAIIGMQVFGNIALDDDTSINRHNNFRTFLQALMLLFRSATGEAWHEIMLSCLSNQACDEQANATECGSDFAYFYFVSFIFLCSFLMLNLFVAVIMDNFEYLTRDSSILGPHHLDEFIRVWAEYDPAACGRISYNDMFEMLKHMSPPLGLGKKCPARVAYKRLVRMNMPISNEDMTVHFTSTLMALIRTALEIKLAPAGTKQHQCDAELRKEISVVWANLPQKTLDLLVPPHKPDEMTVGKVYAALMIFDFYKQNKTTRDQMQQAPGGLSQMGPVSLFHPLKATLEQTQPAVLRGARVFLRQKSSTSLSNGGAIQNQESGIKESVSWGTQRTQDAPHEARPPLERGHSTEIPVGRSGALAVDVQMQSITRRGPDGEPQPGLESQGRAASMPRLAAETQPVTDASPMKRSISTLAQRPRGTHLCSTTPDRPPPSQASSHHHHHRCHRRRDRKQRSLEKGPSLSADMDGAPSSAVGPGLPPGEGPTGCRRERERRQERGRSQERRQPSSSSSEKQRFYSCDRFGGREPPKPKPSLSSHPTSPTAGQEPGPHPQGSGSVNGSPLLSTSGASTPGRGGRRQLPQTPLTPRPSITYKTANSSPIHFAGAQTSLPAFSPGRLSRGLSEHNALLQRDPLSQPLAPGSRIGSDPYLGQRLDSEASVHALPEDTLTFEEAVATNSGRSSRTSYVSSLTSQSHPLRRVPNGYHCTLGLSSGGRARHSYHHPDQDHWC
T6 sequence (Q02410 whole entry): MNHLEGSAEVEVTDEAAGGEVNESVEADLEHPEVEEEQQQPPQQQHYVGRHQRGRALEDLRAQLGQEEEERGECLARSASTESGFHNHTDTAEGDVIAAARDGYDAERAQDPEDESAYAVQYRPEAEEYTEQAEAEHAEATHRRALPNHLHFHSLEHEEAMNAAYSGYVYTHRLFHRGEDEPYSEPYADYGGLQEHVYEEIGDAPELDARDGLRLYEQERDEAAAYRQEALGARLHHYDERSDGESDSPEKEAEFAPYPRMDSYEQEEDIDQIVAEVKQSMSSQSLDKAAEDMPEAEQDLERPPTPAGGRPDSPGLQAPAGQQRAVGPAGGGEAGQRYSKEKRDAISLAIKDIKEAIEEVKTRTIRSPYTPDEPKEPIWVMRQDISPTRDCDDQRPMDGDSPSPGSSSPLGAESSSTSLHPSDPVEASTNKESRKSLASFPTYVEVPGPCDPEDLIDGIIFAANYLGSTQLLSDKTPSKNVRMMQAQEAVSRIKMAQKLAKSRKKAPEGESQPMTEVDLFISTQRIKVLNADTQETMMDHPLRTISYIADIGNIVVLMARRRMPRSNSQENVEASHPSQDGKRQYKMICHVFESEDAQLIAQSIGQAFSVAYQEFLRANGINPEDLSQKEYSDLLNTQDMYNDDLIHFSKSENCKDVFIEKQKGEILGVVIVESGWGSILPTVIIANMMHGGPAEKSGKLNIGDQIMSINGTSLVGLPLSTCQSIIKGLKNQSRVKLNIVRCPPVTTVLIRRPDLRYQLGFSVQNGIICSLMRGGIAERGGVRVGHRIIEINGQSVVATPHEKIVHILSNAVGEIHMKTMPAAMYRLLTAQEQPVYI

[10] = Luminescence Cell-Based Dose Response HTS to Identify Inhibitors of 5'UTR Stem-Loop Driven Prion Protein mRNA Translation in H4 Neuroglioblastoma Cells. [Related pubchem assays: 1827 (Project Summary), 1813 (Primary HTS)]; format: functional
Hexokinase HKDC1 = target: T7, Hexokinase HKDC1 (Homo sapiens, UniProt Q2TB90); assay: HKDC1 hexokinase activators, dose response, biochemical, W721R variant (AID 504730); format: functional
T7 sequence (Q2TB90 whole entry): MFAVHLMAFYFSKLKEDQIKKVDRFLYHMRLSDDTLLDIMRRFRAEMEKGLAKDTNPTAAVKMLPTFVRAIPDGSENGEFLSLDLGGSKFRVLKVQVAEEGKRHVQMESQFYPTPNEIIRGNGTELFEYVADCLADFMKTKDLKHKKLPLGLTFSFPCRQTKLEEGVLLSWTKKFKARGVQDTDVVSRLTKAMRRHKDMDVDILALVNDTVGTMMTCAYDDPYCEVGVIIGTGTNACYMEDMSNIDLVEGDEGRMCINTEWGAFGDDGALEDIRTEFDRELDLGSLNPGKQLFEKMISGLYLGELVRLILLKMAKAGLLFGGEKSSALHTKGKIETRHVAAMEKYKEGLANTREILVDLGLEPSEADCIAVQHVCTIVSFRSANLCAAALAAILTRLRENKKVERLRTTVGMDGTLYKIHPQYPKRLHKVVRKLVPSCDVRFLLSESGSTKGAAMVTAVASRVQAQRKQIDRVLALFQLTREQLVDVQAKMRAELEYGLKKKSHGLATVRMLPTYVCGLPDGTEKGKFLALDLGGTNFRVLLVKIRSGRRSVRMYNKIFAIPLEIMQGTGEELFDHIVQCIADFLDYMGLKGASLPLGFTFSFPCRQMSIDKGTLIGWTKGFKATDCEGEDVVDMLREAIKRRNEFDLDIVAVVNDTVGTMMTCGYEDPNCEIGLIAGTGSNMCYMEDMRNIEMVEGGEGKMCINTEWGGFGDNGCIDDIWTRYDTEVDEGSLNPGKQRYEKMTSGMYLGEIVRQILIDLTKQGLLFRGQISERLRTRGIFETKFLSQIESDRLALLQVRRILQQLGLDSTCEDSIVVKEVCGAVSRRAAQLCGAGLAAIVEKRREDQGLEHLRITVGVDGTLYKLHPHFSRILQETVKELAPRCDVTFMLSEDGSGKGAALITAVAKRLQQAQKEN

[11] = target: T6, Voltage-gated N-type calcium channel alpha-1B subunit/Amyloid beta A4 precursor protein-binding family A member 1; format: protein assay; remark: listed apart in the source
Phosphomannomutase 2 = target: T8, Phosphomannomutase 2 (Homo sapiens, UniProt O15305); assay: Counter screen SAR assay for PMM2 inhibitors via a fluorescence intensity assay. [Related pubchem assays (depositor defined):AID1545, AID1574]
T8 sequence (O15305 whole entry): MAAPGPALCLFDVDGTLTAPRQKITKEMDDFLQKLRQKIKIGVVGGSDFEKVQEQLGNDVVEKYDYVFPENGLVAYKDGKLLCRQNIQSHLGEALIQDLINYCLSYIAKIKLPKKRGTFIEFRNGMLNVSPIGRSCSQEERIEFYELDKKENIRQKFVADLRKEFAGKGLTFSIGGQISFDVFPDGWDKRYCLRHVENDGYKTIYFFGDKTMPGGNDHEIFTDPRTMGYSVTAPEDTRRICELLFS

[12] = target: Eukaryotic translation initiation factor 4E (Mus musculus, UniProt P63073); assay: eIF4E–eIF4G protein interaction inhibitors, dose response, biochemical, TR-FRET (AID 855); format: functional;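 note: potency for disrupting eIF4E binding to eIF4GI seen as loss of FRET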
[13] = target: DNA dC->dU-editing enzyme APOBEC-3G (Homo sapiens, UniProt Q9HC16); assay: Dose Response confirmation of small molecule APOBEC3G DNA Deaminase Inhibitors via a fluorescence-based single-stranded DNA deaminase assay. [Related pubchem assays (depositor defined):AID493012, AID493028]; format: functional
DNA dC->dU-editing enzyme APOBEC-3G, sequence (Q9HC16 whole entry): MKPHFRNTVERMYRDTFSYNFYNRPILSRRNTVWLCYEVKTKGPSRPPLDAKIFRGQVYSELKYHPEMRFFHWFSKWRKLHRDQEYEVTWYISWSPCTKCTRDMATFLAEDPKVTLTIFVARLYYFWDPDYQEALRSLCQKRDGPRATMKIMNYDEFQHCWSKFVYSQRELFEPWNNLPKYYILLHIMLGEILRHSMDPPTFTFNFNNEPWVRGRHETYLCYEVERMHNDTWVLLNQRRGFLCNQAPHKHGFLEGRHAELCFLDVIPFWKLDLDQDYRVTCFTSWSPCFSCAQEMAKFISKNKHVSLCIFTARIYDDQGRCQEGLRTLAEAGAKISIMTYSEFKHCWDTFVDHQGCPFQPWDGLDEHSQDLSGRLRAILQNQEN

[14] = target: T9, Mannose-6-phosphate isomerase (Homo sapiens, UniProt P34949); assay: PMI enzyme inhibitors, confirmation, biochemical, fluorescence intensity (AID 1535)
T9 sequence (P34949 whole entry): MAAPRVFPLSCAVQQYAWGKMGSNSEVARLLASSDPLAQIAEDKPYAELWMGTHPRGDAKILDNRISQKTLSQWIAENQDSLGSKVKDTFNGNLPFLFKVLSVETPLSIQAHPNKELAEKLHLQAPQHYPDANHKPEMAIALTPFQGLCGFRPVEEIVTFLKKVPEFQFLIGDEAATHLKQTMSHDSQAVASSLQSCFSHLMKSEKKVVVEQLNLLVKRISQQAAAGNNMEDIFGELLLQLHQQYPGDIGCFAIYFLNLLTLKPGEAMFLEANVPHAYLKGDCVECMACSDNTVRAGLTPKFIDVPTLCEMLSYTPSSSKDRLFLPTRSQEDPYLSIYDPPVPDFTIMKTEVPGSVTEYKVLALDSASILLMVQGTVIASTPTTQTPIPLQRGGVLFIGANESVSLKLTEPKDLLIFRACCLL

[15] = inhibitors of firefly luciferase expression or activity, dose response, H4 neuroglioma cells, luminescence (AID 1990); format: functional, cell-based
[16] = inhibitors of SNCA 5'UTR-driven reporter translation, confirmation, H4 neuroglioma cells, luminescence (AID 1988); format: functional, cell-based
Hexokinase-1 = Hexokinase-1 (Homo sapiens, UniProt P19367); assay: hexokinase 1 activators, dose response, selectivity assay for HKDC1 activator project, biochemical (AID 504762); format: functional
Hexokinase-1, sequence (P19367 whole entry): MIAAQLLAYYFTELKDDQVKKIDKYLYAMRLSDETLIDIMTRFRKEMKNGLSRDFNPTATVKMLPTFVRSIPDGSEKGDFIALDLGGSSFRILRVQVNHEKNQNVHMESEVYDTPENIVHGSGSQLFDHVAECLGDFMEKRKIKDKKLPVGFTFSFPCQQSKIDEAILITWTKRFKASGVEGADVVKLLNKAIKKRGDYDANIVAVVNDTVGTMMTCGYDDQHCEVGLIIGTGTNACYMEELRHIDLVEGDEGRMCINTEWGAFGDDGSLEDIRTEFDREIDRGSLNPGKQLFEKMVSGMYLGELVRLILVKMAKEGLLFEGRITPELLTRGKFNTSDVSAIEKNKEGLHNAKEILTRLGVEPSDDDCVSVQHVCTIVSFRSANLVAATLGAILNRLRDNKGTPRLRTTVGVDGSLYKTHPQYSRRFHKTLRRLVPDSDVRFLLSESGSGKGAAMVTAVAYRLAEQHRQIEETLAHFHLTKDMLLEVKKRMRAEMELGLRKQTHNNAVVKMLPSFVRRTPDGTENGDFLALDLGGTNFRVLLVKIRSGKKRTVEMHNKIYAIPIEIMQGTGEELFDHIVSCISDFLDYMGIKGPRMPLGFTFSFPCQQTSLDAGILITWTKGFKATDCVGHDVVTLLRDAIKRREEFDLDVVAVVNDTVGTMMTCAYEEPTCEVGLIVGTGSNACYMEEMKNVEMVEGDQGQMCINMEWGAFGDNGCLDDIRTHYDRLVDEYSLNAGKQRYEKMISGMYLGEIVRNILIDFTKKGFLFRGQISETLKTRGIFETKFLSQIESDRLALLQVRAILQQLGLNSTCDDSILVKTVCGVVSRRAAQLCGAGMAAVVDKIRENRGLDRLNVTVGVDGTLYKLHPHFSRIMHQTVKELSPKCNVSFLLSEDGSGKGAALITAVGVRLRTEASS

[17] = target: Peroxisome proliferator-activated receptor gamma/Nuclear receptor coactivator 1 (Homo sapiens, UniProt P37231); assay: (§1) TR-FRET dose response biochemical High Throughput Screening assay for agonists of the steroid receptor coactivator 1 (SRC-1) recruitment by the peroxisome proliferator-activated receptor gamma (PPAR gamma): non-selective agonists. [Related pubchem assays (depositor defined):AID1300, AID1808, AID504735, AID631]; format: protein assay
Leucine aminopeptidase = target: T10, Leucine aminopeptidase (Plasmodium falciparum 3D7, UniProt Q8IL11); assay: P. falciparum M17LAP inhibitors, primary screen, biochemical, fluorogenic H-Leu-NHMec substrate, 1536-well (AID 1619); format: functional
T10 sequence (Q8IL11 whole entry): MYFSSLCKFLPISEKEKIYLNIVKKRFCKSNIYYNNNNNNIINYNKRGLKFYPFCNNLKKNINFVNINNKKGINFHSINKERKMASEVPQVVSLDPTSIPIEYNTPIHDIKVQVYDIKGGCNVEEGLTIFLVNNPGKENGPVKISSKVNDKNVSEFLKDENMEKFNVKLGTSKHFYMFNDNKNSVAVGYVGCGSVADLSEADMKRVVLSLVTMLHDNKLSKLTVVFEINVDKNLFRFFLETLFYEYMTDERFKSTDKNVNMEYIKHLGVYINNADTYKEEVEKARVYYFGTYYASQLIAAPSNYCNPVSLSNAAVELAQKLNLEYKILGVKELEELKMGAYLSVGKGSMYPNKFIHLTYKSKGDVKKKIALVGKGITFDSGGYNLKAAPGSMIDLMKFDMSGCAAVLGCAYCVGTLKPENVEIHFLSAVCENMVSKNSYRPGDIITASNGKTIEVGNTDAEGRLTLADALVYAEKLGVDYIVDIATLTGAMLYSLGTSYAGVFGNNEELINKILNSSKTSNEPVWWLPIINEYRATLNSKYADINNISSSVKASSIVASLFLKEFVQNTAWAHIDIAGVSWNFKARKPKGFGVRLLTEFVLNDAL

[18] = target: Peroxisome proliferator-activated receptor gamma/Nuclear receptor coactivator 3 (Homo sapiens, UniProt P37231); assay: as §1, with “3 (SRC-3)” for “1 (SRC-1)”, “assays: 1301 (Confirmation screen.), 1048 (Primary screen.)]” for “assays (depositor defined):AID1300, AID1808, AID504735, AID631]”; format: functional
[19] = target: Peroxisome proliferator-activated receptor gamma/Nuclear receptor coactivator 2 (Homo sapiens, UniProt P37231); assay: TR-FRET dose response biochemical High Throughput Screening assay for agonists of the steroid receptor coactivator 2 (SRC-2) recruitment by the peroxisome proliferator-activated receptor gamma (PPAR gamma): non-selective agonists. [Related pubchem assays: 1297, 1032 ]; format: functional

Cc1cccc(OCCN2C(=O)C(=O)c3cc(C)ccc32)c1
AC50 (CAAX prenyl protease 2 [1]): 18.1 µM (active) | AC50 [2]: 73.6 µM (active) | AC50 (CAAX prenyl protease 2 [3]): 1.11 µM (active)

CC(C)C[C@H](N)c1cn([C@@H](Cc2cc3ccccc3[nH]2)C(=O)N2CCNCC2)nn1
IC50 [4]: 14 µM (active) | IC50 (Bcl-2-related protein A1): > 20 µM (inactive) | IC50 [5]: 15.8 µM (active)

Cc1ccc(NC(=O)CCNS(=O)(=O)c2ccc3[nH]c(=O)oc3c2)cc1F
EC50 [6]: > 100 µM (inactive) | EC50 [7]: 1.76 µM (active) | EC50 [8]: > 100 µM (inactive)

Cc1ccc(/N=c2\ssnc2Cl)cc1
IC50 [9]: 2.85 µM (active) | EC50 [10]: > 120 µM (not active) | EC50 (Hexokinase HKDC1): 59 µM (inactive) | IC50 [11]: 9.27 µM (active) | IC50 (Phosphomannomutase 2): > 100 µM (inactive) | IC50 [12]: 35.4 µM (inactive) | IC50 [13]: 10.2 µM (active) | IC50 [14]: 18.6 µM (active) | EC50 [15]: > 120 µM (not active) | EC50 [16]: > 120 µM (not active) | EC50 (Hexokinase-1): 53.2 µM (inactive)

CCOC(=O)c1c(-c2cccs2)csc1NC(=O)CCCC(=O)O
EC50 [17]: 69.1 µM (inactive) | IC50 (Leucine aminopeptidase): 20.3 µM (active) | EC50 [18]: > 79.4 µM (not active) | EC50 [19]: 39.6 µM (not active)

— ChEMBL document CHEMBL1201862, “PubChem BioAssay data set” (2004)
